{
  "source": "PubChem BioAssay AID2060484",
  "about": "(Molecular Pharmacology Branch, DTP, NCI, 2025)",
  "system": "SUM149PT spheroids with HUVEC/MSC, viability",
  "test": "Anticancer human tumor SUM149PT cell line growth inhibition [GQUAD];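 note: spheroids exposed to drugs for seven days before readout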;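 for viability, T/C: percent viability relative to DMSO vehicle control taken as 100%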",
  "conditions": "for IC50: curve of first compound; for viability, T/C: stronger effect = lower value",
  "procedure,_shortened": "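Tumor cells were grown as complex spheroids with HUVEC endothelial cells and mesenchymal stem cells as stroma. G-quadruplex stabilizers were combined with targeted agents over half-log dilutions from near the clinical Cmax, or from 10 microM.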",
  "key": {"[1]": {"conditions": "second compound 0.0316 µM, first compound 0.0316 µM"}, "[2]": {"conditions": "second compound 0.0316 µM, first compound 0.1 µM"}, "[3]": {"conditions": "second compound 0.0316 µM, first compound 0.316 µM"}, "[4]": {"conditions": "second compound 0.0316 µM, first compound 1 µM"}, "[5]": {"conditions": "second compound 0.0316 µM, first compound 3.16 µM"}, "[6]": {"conditions": "second compound 0.0316 µM, first compound 10 µM"}, "[7]": {"conditions": "second compound 0.1 µM, first compound 0.0316 µM"}, "[8]": {"conditions": "second compound 0.1 µM, first compound 0.1 µM"}, "[9]": {"conditions": "second compound 0.1 µM, first compound 0.316 µM"}, "[10]": {"conditions": "second compound 0.1 µM, first compound 1 µM"}, "[11]": {"conditions": "second compound 0.1 µM, first compound 3.16 µM"}, "[12]": {"conditions": "second compound 0.1 µM, first compound 10 µM"}, "[13]": {"conditions": "second compound 0.316 µM, first compound 0.0316 µM"}, "[14]": {"conditions": "second compound 0.316 µM, first compound 0.1 µM"}, "[15]": {"conditions": "second compound 0.316 µM, first compound 0.316 µM"}, "[16]": {"conditions": "second compound 0.316 µM, first compound 1 µM"}, "[17]": {"conditions": "second compound 0.316 µM, first compound 3.16 µM"}, "[18]": {"conditions": "second compound 0.316 µM, first compound 10 µM"}, "[19]": {"conditions": "second compound 1 µM, first compound 0.0316 µM"}, "[20]": {"conditions": "second compound 1 µM, first compound 0.1 µM"}, "[21]": {"conditions": "second compound 1 µM, first compound 0.316 µM"}, "[22]": {"conditions": "second compound 1 µM, first compound 1 µM"}, "[23]": {"conditions": "second compound 1 µM, first compound 3.16 µM"}, "[24]": {"conditions": "second compound 1 µM, first compound 10 µM"}, "[25]": {"conditions": "second compound 3.16 µM, first compound 0.0316 µM"}, "[26]": {"conditions": "second compound 3.16 µM, first compound 0.1 µM"}, "[27]": {"conditions": "second compound 3.16 µM, first compound 0.316 µM"}, "[28]": {"conditions": "second compound 3.16 µM, first compound 1 µM"}, "[29]": {"conditions": "second compound 3.16 µM, first compound 3.16 µM"}, "[30]": {"conditions": "second compound 3.16 µM, first compound 10 µM"}, "[31]": {"conditions": "second compound 10 µM, first compound 0.0316 µM"}, "[32]": {"conditions": "second compound 10 µM, first compound 0.1 µM"}, "[33]": {"conditions": "second compound 10 µM, first compound 0.316 µM"}, "[34]": {"conditions": "second compound 10 µM, first compound 1 µM"}, "[35]": {"conditions": "second compound 10 µM, first compound 3.16 µM"}, "[36]": {"conditions": "second compound 10 µM, first compound 10 µM"}},
  "data": [
    {"smiles": "CC1COCCN1c1cc(C2(S(C)(=N)=O)CC2)nc(-c2ccnc3[nH]ccc23)n1", "note": "(centres undefined) + Cc1cnc(CNC(=O)c2c(=O)c3ccc(N4CCCN(C)CC4)nc3n3c2sc2ccccc23)cn1", "values": [
      {"measurement": "IC50", "setting": "second compound 0.0316 µM", "result": 249, "unit": "nM"},
      {"measurement": "IC50", "setting": "second compound 0.1 µM", "result": 164, "unit": "nM"},
      {"measurement": "IC50", "setting": "second compound 0.316 µM", "result": 97.9, "unit": "nM"},
      {"measurement": "IC50", "setting": "second compound 1 µM", "result": "< 31.6", "unit": "nM"},
      {"measurement": "IC50", "setting": "second compound 3.16 µM", "result": "< 31.6", "unit": "nM"},
      {"measurement": "IC50", "setting": "second compound 10 µM", "result": "< 31.6", "unit": "nM"},
      {"measurement": "viability, T/C", "setting": "[1]", "result": 87, "unit": "%"},
      {"measurement": "viability, T/C", "setting": "[2]", "result": 71.1, "unit": "%"},
      {"measurement": "viability, T/C", "setting": "[3]", "result": 44.9, "unit": "%"},
      {"measurement": "viability, T/C", "setting": "[4]", "result": 25.8, "unit": "%"},
      {"measurement": "viability, T/C", "setting": "[5]", "result": 31.5, "unit": "%"},
      {"measurement": "viability, T/C", "setting": "[6]", "result": 17.7, "unit": "%"},
      {"measurement": "viability, T/C", "setting": "[7]", "result": 59.8, "unit": "%"},
      {"measurement": "viability, T/C", "setting": "[8]", "result": 57.9, "unit": "%"},
      {"measurement": "viability, T/C", "setting": "[9]", "result": 38.6, "unit": "%"},
      {"measurement": "viability, T/C", "setting": "[10]", "result": 23.7, "unit": "%"},
      {"measurement": "viability, T/C", "setting": "[11]", "result": 36, "unit": "%"},
      {"measurement": "viability, T/C", "setting": "[12]", "result": 17.9, "unit": "%"},
      {"measurement": "viability, T/C", "setting": "[13]", "result": 57.3, "unit": "%"},
      {"measurement": "viability, T/C", "setting": "[14]", "result": 48.9, "unit": "%"},
      {"measurement": "viability, T/C", "setting": "[15]", "result": 41.4, "unit": "%"},
      {"measurement": "viability, T/C", "setting": "[16]", "result": 27.2, "unit": "%"},
      {"measurement": "viability, T/C", "setting": "[17]", "result": 29.2, "unit": "%"},
      {"measurement": "viability, T/C", "setting": "[18]", "result": 22.5, "unit": "%"},
      {"measurement": "viability, T/C", "setting": "[19]", "result": 45.9, "unit": "%"},
      {"measurement": "viability, T/C", "setting": "[20]", "result": 46, "unit": "%"},
      {"measurement": "viability, T/C", "setting": "[21]", "result": 42.9, "unit": "%"},
      {"measurement": "viability, T/C", "setting": "[22]", "result": 31.8, "unit": "%"},
      {"measurement": "viability, T/C", "setting": "[23]", "result": 37.1, "unit": "%"},
      {"measurement": "viability, T/C", "setting": "[24]", "result": 21.3, "unit": "%"},
      {"measurement": "viability, T/C", "setting": "[25]", "result": 36.9, "unit": "%"},
      {"measurement": "viability, T/C", "setting": "[26]", "result": 37.7, "unit": "%"},
      {"measurement": "viability, T/C", "setting": "[27]", "result": 36.2, "unit": "%"},
      {"measurement": "viability, T/C", "setting": "[28]", "result": 31.1, "unit": "%"},
      {"measurement": "viability, T/C", "setting": "[29]", "result": 33.7, "unit": "%"},
      {"measurement": "viability, T/C", "setting": "[30]", "result": 20.4, "unit": "%"},
      {"measurement": "viability, T/C", "setting": "[31]", "result": 0.72, "unit": "%"},
      {"measurement": "viability, T/C", "setting": "[32]", "result": 0.21, "unit": "%"},
      {"measurement": "viability, T/C", "setting": "[33]", "result": 0.33, "unit": "%"},
      {"measurement": "viability, T/C", "setting": "[34]", "result": 0.28, "unit": "%"},
      {"measurement": "viability, T/C", "setting": "[35]", "result": 0.77, "unit": "%"},
      {"measurement": "viability, T/C", "setting": "[36]", "result": 1.29, "unit": "%"}
    ]},
    {"smiles": "COc1ccc([C@@H](O)c2cc(-c3ncnc4cc(N5CCOCC5)ccc34)c(F)cc2Cl)nn1", "note": "+ Cc1cnc(CNC(=O)c2c(=O)c3ccc(N4CCCN(C)CC4)nc3n3c2sc2ccccc23)cn1", "values": [
      {"measurement": "IC50", "setting": "second compound 0.0316 µM", "result": 385, "unit": "nM"},
      {"measurement": "IC50", "setting": "second compound 0.1 µM", "result": 142, "unit": "nM"},
      {"measurement": "IC50", "setting": "second compound 0.316 µM", "result": 61.1, "unit": "nM"},
      {"measurement": "IC50", "setting": "second compound 1 µM", "result": "< 31.6", "unit": "nM"},
      {"measurement": "IC50", "setting": "second compound 3.16 µM", "result": "< 31.6", "unit": "nM"},
      {"measurement": "IC50", "setting": "second compound 10 µM", "result": "< 31.6", "unit": "nM"},
      {"measurement": "viability, T/C", "setting": "[1]", "result": 88.4, "unit": "%"},
      {"measurement": "viability, T/C", "setting": "[2]", "result": 68.2, "unit": "%"},
      {"measurement": "viability, T/C", "setting": "[3]", "result": 55.8, "unit": "%"},
      {"measurement": "viability, T/C", "setting": "[4]", "result": 35.8, "unit": "%"},
      {"measurement": "viability, T/C", "setting": "[5]", "result": 24.5, "unit": "%"},
      {"measurement": "viability, T/C", "setting": "[6]", "result": 18.5, "unit": "%"},
      {"measurement": "viability, T/C", "setting": "[7]", "result": 65.8, "unit": "%"},
      {"measurement": "viability, T/C", "setting": "[8]", "result": 51.8, "unit": "%"},
      {"measurement": "viability, T/C", "setting": "[9]", "result": 44.1, "unit": "%"},
      {"measurement": "viability, T/C", "setting": "[10]", "result": 25.5, "unit": "%"},
      {"measurement": "viability, T/C", "setting": "[11]", "result": 21.5, "unit": "%"},
      {"measurement": "viability, T/C", "setting": "[12]", "result": 16.3, "unit": "%"},
      {"measurement": "viability, T/C", "setting": "[13]", "result": 53, "unit": "%"},
      {"measurement": "viability, T/C", "setting": "[14]", "result": 48.2, "unit": "%"},
      {"measurement": "viability, T/C", "setting": "[15]", "result": 36, "unit": "%"},
      {"measurement": "viability, T/C", "setting": "[16]", "result": 24.5, "unit": "%"},
      {"measurement": "viability, T/C", "setting": "[17]", "result": 19.2, "unit": "%"},
      {"measurement": "viability, T/C", "setting": "[18]", "result": 14.8, "unit": "%"},
      {"measurement": "viability, T/C", "setting": "[19]", "result": 43.4, "unit": "%"},
      {"measurement": "viability, T/C", "setting": "[20]", "result": 38.9, "unit": "%"},
      {"measurement": "viability, T/C", "setting": "[21]", "result": 35.4, "unit": "%"},
      {"measurement": "viability, T/C", "setting": "[22]", "result": 23.2, "unit": "%"},
      {"measurement": "viability, T/C", "setting": "[23]", "result": 19.6, "unit": "%"},
      {"measurement": "viability, T/C", "setting": "[24]", "result": 15.7, "unit": "%"},
      {"measurement": "viability, T/C", "setting": "[25]", "result": 34.5, "unit": "%"},
      {"measurement": "viability, T/C", "setting": "[26]", "result": 34.1, "unit": "%"},
      {"measurement": "viability, T/C", "setting": "[27]", "result": 29.4, "unit": "%"},
      {"measurement": "viability, T/C", "setting": "[28]", "result": 20.7, "unit": "%"},
      {"measurement": "viability, T/C", "setting": "[29]", "result": 17.6, "unit": "%"},
      {"measurement": "viability, T/C", "setting": "[30]", "result": 13.3, "unit": "%"},
      {"measurement": "viability, T/C", "setting": "[31]", "result": 0.17, "unit": "%"},
      {"measurement": "viability, T/C", "setting": "[32]", "result": 1.03, "unit": "%"},
      {"measurement": "viability, T/C", "setting": "[33]", "result": 0.2, "unit": "%"},
      {"measurement": "viability, T/C", "setting": "[34]", "result": 0.32, "unit": "%"},
      {"measurement": "viability, T/C", "setting": "[35]", "result": 1.7, "unit": "%"},
      {"measurement": "viability, T/C", "setting": "[36]", "result": 1.3, "unit": "%"}
    ]}
  ]
}
